# Test results: patent publication US12458809B2, “Method and system of using plasma discharge tube for sensitization of cancer cells” (The George Washington University, priority 2019, dated 2025)
# Assays:
# A172 glioblastoma cells = experiment: MTT cell viability assay, A172 glioblastoma cells, TMZ with or without plasma discharge tube electro-magnetic field; assay type: cell-based, human
# Procedure: (§1) In one experiment conducted using the test system 10 in FIGS. 1A-1B, human glioblastoma cancer cell lines U87 and A172 as well as […] E6/E7 were provided from the ATCC (City of Manassas, VA), and were grown in Dulbecco's Modified Eagle Medium (Gibco) supplemented with 10% fetal bovine serum (Atlanta Biologicals) and 1% penicillin-streptomycin solution (Invitrogen) under standard cell culture conditions (humidified atmosphere with 5% CO2 at 37° C.). After one passage, 10,000 cells in 100 μL medium were seeded into 96-well plates such as the plate 134 in FIG. 1A. The cells were cultured for 24 hours before the experiment was performed to ensure proper cell attachment and stability.
# (§2) Cell viability was analyzed by using an MTT assay available from Sigma-Aldrich, which is a colorimetric assay for analyzing the cell metabolic activity. The MTT protocol is based on NAD(P)H-dependent cellular oxidoreductases, which reduces the water-soluble MTT ((3-(4,5-dimethylthiazol-2-yl)-2,5-diphenyltetrazolium bromide) to an insoluble formazan product. Cells with active metabolism can transform MTT into formazan; however, dead cells cannot transform MTT into formazan and will not show detectable signal. The measured absorbance at OD 590 nm is proportional to the number of viable cells.
# (§3) Following treatment with an electro-magnetic field generated from the example plasma tube, the cells were cultured for 72 hours. A total of 100 μL MTT solution (7 mg Thiazolyl Blue Tetrazolium Blue in 10 ml DMEM) was added to each well. Cells were cultured for an additional 3 hours at 37° C., and then the MTT solution was aspirated and a 100 μL solvent was added to dissolve the formazan crystals. The result was recorded with a Synergy H1 Hybrid Multi-Mode Microplate Reader at 570 nm. For each condition (treatment time, voltage, drug concentration), the experiments were performed in triplicates and were repeated independently 3 times.
# In this example, four different experimental cell groups were used. The first experimental group was the control group. […]
# U87 glioblastoma cells = experiment: MTT cell viability assay, U87 glioblastoma cells, TMZ with or without plasma discharge tube electro-magnetic field; assay type: cell-based, human; conditions: for inhibition of the growth of U87 cells: then 180 μM TMZ
# Procedure: as §1, §2, §3
# In this example, four different experimental cell groups were used. The first experimental group was the control group. For each well of the plates for the control group, the cell culture media was removed before the treatment applied to the other experimental groups. After the treatment was applied to the other experimental groups, 100 μL, fresh cell culture media for each well was added to the cells of the control group.
# The second experimental group is the tube-only group. For the tube-only group, the cell culture media was removed before the treatment as well. After that, the cells were treated by placing the plate 134 on the side of the discharge tube 100 in FIG. 1A, with a distance of 1 and 5 mm between the plate 134 and the tube 100. The cells in the plate were exposed to the electro-magnetic field for 1, 4 and 7 minutes. 100 μL fresh cell culture media for each well was added to the cells after the treatment.
# The third experiment group is the drug-only group. For the drug-only group, the cell culture media was removed before the treatment via electro-magnetic field applied to the other experimental groups. After the treatment of the other groups, 100 μL fresh cell culture media with 180, 250, 320 μM of TMZ for each well was added to the cells.
# The last experimental group is a combination group. For the combination group, the cell culture media was removed before the treatment as well. Then, the cells were treated by placing the plate 134 on the side of the discharge tube 100 at a distance of 1 and 5 mm. The electro-magnetic field was applied for 1, 4 and 7 minutes. Following the treatment, 100 μL, fresh cell culture media with 180, 250, and 320 μM of TMZ for each well was added to the cells.
# hTERT/E6/E7 cells = experiment: MTT cell viability assay, non-cancerous hTERT/E6/E7 cells, TMZ with or without plasma discharge tube electro-magnetic field; assay type: cell-based; conditions: after a single 7-minute treatment with discharge tube, E6/E7 non-tumor cell line
# Procedure: as §1
# as §2, with “cells. […]” for “cells.”
smiles,measurement,setting,value
"Cn1nnc2c(C(N)=O)ncn2c1=O [TMZ, Temozolomide]",reduction of cell viability of A172 cells,"A172 glioblastoma cells; 7 minutes electro-magnetic field exposure at 1 mm, then 250 μM TMZ",76%
same,inhibition at 250 µM,"A172 glioblastoma cells; Homo sapiens, A 172, 250 μM TMZ, read-out: cell growth inhibition of A172 cells",23%
same,increase of anti-cancer efficacy of TMZ (factor),"A172 glioblastoma cells; after a single 7-minute treatment with discharge tube, A172",> 2
same,inhibition of the growth of U87 cells (killing effect),"U87 glioblastoma cells; 1, 4 or 7 minute electro-magnetic field exposure at 1 mm, then 320 μM TMZ",~80%
same,inhibition of the growth of U87 cells,U87 glioblastoma cells; 1 minute electro-magnetic field exposure,24%
same,inhibition of the growth of U87 cells,U87 glioblastoma cells; 4 minute electro-magnetic field exposure,38%
same,inhibition of the growth of U87 cells,U87 glioblastoma cells; 7 minute electro-magnetic field exposure,72%
same,increase in U87 cell death compared with non-cancerous cells,U87 glioblastoma cells; 7 minutes electro-magnetic field exposure prior to TMZ treatment (FIG. 7),43%
same,inhibition at 180 µM,"U87 glioblastoma cells; Homo sapiens, U-87 MG, 72 h, 180 μM TMZ only, no electro-magnetic field, 72 h, read-out: growth inhibition / cell death of U87 cells",21%
same,higher cell death in U87 cells compared to E6/E7 cells,U87 glioblastoma cells; TMZ-only treatment (FIG. 7),12%
same,increase of anti-cancer efficacy of TMZ (factor),"U87 glioblastoma cells; after a single 7-minute treatment with discharge tube, U87",> 2
same,killing effect on U87 cells,U87 glioblastoma cells; electro-magnetic field exposure at 5 mm (so in the source); FIG. 4E) plus TMZ,60%
same,increase of anti-cancer efficacy of TMZ,hTERT/E6/E7 cells,no significant effect
